Laboratory results reported in patent US7932384B2, “Reverse-turn mimetics and method relating thereto” (Choongwae Pharma Corporation, priority 2001, dated 2011).

How the values were obtained:
Assay type in all cases: cell-based
T84 = experiment: Sulforhodamine B (SRB) assay, T84; conditions: Colon, T84, 48 hours
Protocol: (§1) Growth inhibitory effect of Compound A on the cells listed below was measured by the sulforhodamine B assay. SW480 cells in 100 μl media were plated in each well of 96-well plate and allowed to attach for 24 hours. Compound A was added to the wells to produce the desired final concentrations, and the plates were incubated at 37° C. for 48 hours. The cells were then fixed by gentle addition of 100 μl of cold (4° C.) 10% trichloroacetic acid to each well, followed by incubation at 4° C. for 1 hour. Plates were washed with deionized water five times and allowed to air dry. The cells were then stained by addition of 100 μl SRB solution (0.4% SRB(w/v) in 1% acetic acid (v/v)) to wells for 15 min. After staining, the plates were quickly washed five times with 1% acetic acid to remove any unbound dye, and allowed to air dry. Bound dye was solubilized with 10 mmol/L Tris base (pH 10.5) prior to reading the plates. The optical density (OD) was read on a plate reader at a wavelength of 515 nm with Molecular Device. Inhibition of growth was expressed as relative viability (% of control) and GI50 was calculated from concentration-response curves after log/probit transformation.
(§2) The values in Table 6 are in μg/ml.

LOVO = experiment: Sulforhodamine B (SRB) assay, LOVO; conditions: Colon, 48 hours
Protocol: as §1, §2

HT29 = experiment: Sulforhodamine B (SRB) assay, HT29; conditions: Colon, HT29, 48 hours
Protocol: as §1, §2

DLD-1 = experiment: Sulforhodamine B (SRB) assay, DLD-1; conditions: Colon, DLD-1, 48 hours
Protocol: as §1, §2

COLO205 = experiment: Sulforhodamine B (SRB) assay, COLO205; conditions: Colon, COLO205, 48 hours
Protocol: as §1, §2

CACO-2 = experiment: Sulforhodamine B (SRB) assay, CACO-2; conditions: Colon, CACO-2, 48 hours
Protocol: as §1, §2

SW480-Kribb = experiment: Sulforhodamine B (SRB) assay, SW480-Kribb; conditions: Colon, 48 hours
Protocol: as §1, §2

SW480-CWP = experiment: Sulforhodamine B (SRB) assay, SW480-CWP; conditions: Colon, 48 hours
Protocol: as §1, §2

SW620 = experiment: Sulforhodamine B (SRB) assay, SW620; conditions: Colon, SW620, 48 hours
Protocol: as §1, §2

KM12 = experiment: Sulforhodamine B (SRB) assay, KM12; conditions: Colon, KM12, 48 hours
Protocol: as §1, §2

HCT15 = experiment: Sulforhodamine B (SRB) assay, HCT15; conditions: Colon, HCT15, 48 hours
Protocol: as §1, §2

HCT116 = experiment: Sulforhodamine B (SRB) assay, HCT116; conditions: Colon, HCT116, 48 hours
Protocol: as §1, §2

HCC2998 = experiment: Sulforhodamine B (SRB) assay, HCC2998; conditions: Colon, HCC2998, 48 hours
Protocol: as §1, §2

786-0 = experiment: Sulforhodamine B (SRB) assay, 786-0; conditions: Renal, 786-0, 48 hours
Protocol: as §1, §2

HL60 = experiment: Sulforhodamine B (SRB) assay, HL60; conditions: Leukemia, HL60, 48 hours
Protocol: as §1, §2

K562/VIN = experiment: Sulforhodamine B (SRB) assay, K562/VIN; conditions: Leukemia, 48 hours
Protocol: as §1, §2

K562/ADR = experiment: Sulforhodamine B (SRB) assay, K562/ADR; conditions: Leukemia, 48 hours
Protocol: as §1, §2

K562 = experiment: Sulforhodamine B (SRB) assay, K562; conditions: Leukemia, K562, 48 hours
Protocol: as §1, §2

PC3 = experiment: Sulforhodamine B (SRB) assay, PC3; conditions: Prostate, PC3, 48 hours
Protocol: as §1, §2

HT1080 = experiment: Sulforhodamine B (SRB) assay, HT1080; conditions: Prostate, HT1080, 48 hours
Protocol: as §1, §2

A549 = experiment: Sulforhodamine B (SRB) assay, A549; conditions: Lung, A549, 48 hours
Protocol: as §1, §2

NCI H460 = experiment: Sulforhodamine B (SRB) assay, NCI H460; conditions: Lung, NCI H460, 48 hours
Protocol: as §1, §2

NCI H23 = experiment: Sulforhodamine B (SRB) assay, NCI H23; conditions: Lung, NCI H23, 48 hours
Protocol: as §1, §2

293 = experiment: Sulforhodamine B (SRB) assay, 293; conditions: Renal, 293, 48 hours
Protocol: as §1, §2

CAKI-1 = experiment: Sulforhodamine B (SRB) assay, CAKI-1; conditions: Renal, CAKI-1, 48 hours
Protocol: as §1, §2

ACHN = experiment: Sulforhodamine B (SRB) assay, ACHN; conditions: Renal, 48 hours
Protocol: as §1, §2

RPMI7951 = experiment: Sulforhodamine B (SRB) assay, RPMI7951; conditions: Melanoma, RPMI7951, 48 hours
Protocol: as §1, §2

M14 = experiment: Sulforhodamine B (SRB) assay, M14; conditions: Melanoma, M14, 48 hours
Protocol: as §1, §2

HMV-I = experiment: Sulforhodamine B (SRB) assay, HMV-I; conditions: Melanoma, 48 hours
Protocol: as §1, §2

G361 = experiment: Sulforhodamine B (SRB) assay, G361; conditions: Melanoma, G361, 48 hours
Protocol: as §1, §2

CRL1579 = experiment: Sulforhodamine B (SRB) assay, CRL1579; conditions: Melanoma, CRL1579, 48 hours
Protocol: as §1, §2

A431 = experiment: Sulforhodamine B (SRB) assay, A431; conditions: Melanoma, A431, 48 hours
Protocol: as §1, §2

A253 = experiment: Sulforhodamine B (SRB) assay, A253; conditions: Melanoma, A253, 48 hours
Protocol: as §1, §2

UACC62 = experiment: Sulforhodamine B (SRB) assay, UACC62; conditions: Melanoma, UACC62, 48 hours
Protocol: as §1, §2

SK-MEL-28 = experiment: Sulforhodamine B (SRB) assay, SK-MEL-28; conditions: Melanoma, SK-MEL-28, 48 hours
Protocol: as §1, §2

SK-MEL-5 = experiment: Sulforhodamine B (SRB) assay, SK-MEL-5; conditions: Melanoma, SK-MEL-5, 48 hours
Protocol: as §1, §2

LOX-IMVI = experiment: Sulforhodamine B (SRB) assay, LOX-IMVI; conditions: Melanoma, 48 hours
Protocol: as §1, §2

A375 = experiment: Sulforhodamine B (SRB) assay, A375; conditions: Melanoma, A375, 48 hours
Protocol: as §1, §2

MCF7/ADR = experiment: Sulforhodamine B (SRB) assay, MCF7/ADR; conditions: Breast, 48 hours
Protocol: as §1, §2

MCF7 = experiment: Sulforhodamine B (SRB) assay, MCF7; conditions: Breast, MCF7, 48 hours
Protocol: as §1, §2

RPMI8226 = experiment: Sulforhodamine B (SRB) assay, RPMI8226; conditions: Leukemia, RPMI8226, 48 hours
Protocol: as §1, §2

caspase 3 = experiment: Caspase 3 activity in cultured tumor cells; conditions: 0.5 μM
caspase 2 = experiment: Caspase 2 activity in cultured tumor cells; conditions: 0.5 μM
cultured tumor cells [1] = experiment: Cell death of cultured tumor cells; conditions: 0.5 μM
cultured tumor cells [2] = experiment: FACS analysis of cells in G0, cultured tumor cells; conditions: 0.5 μM

2-Methyl-5-(p-hydroxyphenylmethyl)-7-naphthylmethyl-3,6-dioxo-hexahydro-[1,2,4]triazolo[4,5-a]pyrazine-1-carboxylic acid benzylamide [Example 4]
GI50 (SRB assay) (T84): 1.134 µg/mL
GI50 (SRB assay) (LOVO): 0.532 µg/mL
GI50 (SRB assay) (HT29): 1.694 µg/mL
GI50 (SRB assay) (DLD-1): 1.775 µg/mL
GI50 (SRB assay) (COLO205): 1.136 µg/mL
GI50 (SRB assay) (CACO-2): 1.201 µg/mL
GI50 (SRB assay) (SW480-Kribb): 1.137 µg/mL
GI50 (SRB assay) (SW480-CWP): 0.980 µg/mL
GI50 (SRB assay) (SW620): 1.426 µg/mL
GI50 (SRB assay) (KM12): 1.451 µg/mL
GI50 (SRB assay) (HCT15): 2.042 µg/mL
GI50 (SRB assay) (HCT116): 0.96 µg/mL
GI50 (SRB assay) (HCC2998): 1.047 µg/mL
GI50 (SRB assay) (786-0): 1.417 µg/mL
GI50 (SRB assay) (HL60): 1.243 µg/mL
GI50 (SRB assay) (K562/VIN): 1.640 µg/mL
GI50 (SRB assay) (K562/ADR): 7.682 µg/mL
GI50 (SRB assay) (K562): 1.247 µg/mL
GI50 (SRB assay) (PC3): 1.207 µg/mL
GI50 (SRB assay) (HT1080): 1.469 µg/mL
GI50 (SRB assay) (A549): 1.386 µg/mL
GI50 (SRB assay) (NCI H460): 1.498 µg/mL
GI50 (SRB assay) (NCI H23): 1.296 µg/mL
GI50 (SRB assay) 293: 0.731 µg/mL
GI50 (SRB assay) (CAKI-1): 0.467 µg/mL
GI50 (SRB assay) (ACHN): 1.263 µg/mL
GI50 (SRB assay) (RPMI7951): 0.936 µg/mL
GI50 (SRB assay) (M14): 2.289 µg/mL
GI50 (SRB assay) (HMV-I): 1.153 µg/mL
GI50 (SRB assay) (G361): 0.584 µg/mL
GI50 (SRB assay) (CRL1579): 1.830 µg/mL
GI50 (SRB assay) (A431): 1.083 µg/mL
GI50 (SRB assay) (A253): 1.398 µg/mL
GI50 (SRB assay) (UACC62): 0.563 µg/mL
GI50 (SRB assay) (SK-MEL-28): 1.291 µg/mL
GI50 (SRB assay) (SK-MEL-5): 0.888 µg/mL
GI50 (SRB assay) (LOX-IMVI): 1.526 µg/mL
GI50 (SRB assay) (A375): 1.391 µg/mL
GI50 (SRB assay) (MCF7/ADR): 9.487 µg/mL
GI50 (SRB assay) (MCF7): 7.355 µg/mL

N.N.[Cl][Pt][Cl] [Cisplatin, cisplatin, reference compound]
GI50 (SRB assay) (T84): >10 µg/mL
GI50 (SRB assay) (LOVO): >10 µg/mL
GI50 (SRB assay) (HT29): >10 µg/mL
GI50 (SRB assay) (DLD-1): >10 µg/mL
GI50 (SRB assay) (COLO205): >10 µg/mL
GI50 (SRB assay) (SW480-Kribb): >10 µg/mL
GI50 (SRB assay) (SW620): >10 µg/mL
GI50 (SRB assay) (KM12): >10 µg/mL
GI50 (SRB assay) (HCT15): >10 µg/mL
GI50 (SRB assay) (HCT116): >10 µg/mL
GI50 (SRB assay) (HCC2998): >10 µg/mL
GI50 (SRB assay) (HL60): >10 µg/mL
GI50 (SRB assay) (RPMI8226): >10 µg/mL
GI50 (SRB assay) (K562/VIN): >10 µg/mL
GI50 (SRB assay) (K562/ADR): >10 µg/mL
GI50 (SRB assay) (K562): >10 µg/mL
GI50 (SRB assay) (PC3): >10 µg/mL
GI50 (SRB assay) (HT1080): >10 µg/mL
GI50 (SRB assay) (A549): >10 µg/mL
GI50 (SRB assay) (NCI H460): >10 µg/mL
GI50 (SRB assay) (CAKI-1): >10 µg/mL
GI50 (SRB assay) (UACC62): >10 µg/mL
GI50 (SRB assay) (SK-MEL-28): >10 µg/mL
GI50 (SRB assay) (SK-MEL-5): >10 µg/mL
GI50 (SRB assay) (LOX-IMVI): >10 µg/mL
GI50 (SRB assay) (A375): >10 µg/mL
GI50 (SRB assay) (MCF7): >10 µg/mL

CN[C@@H]1C[C@H]2O[C@@](C)([C@@H]1OC)n1c3ccccc3c3c4c(c5c6ccccc6n2c5c31)C(=O)NC4 [stausporine, staurosporine, reference compound]
caspase 3 activity (caspase 3): increased both the caspase 2 and caspase 3 activities
caspase 2 activity (caspase 2): increased both the caspase 2 and caspase 3 activities
cell death (cultured tumor cells [1]): promote cell death
number of cells in G0 (FACS) (cultured tumor cells [2]): increase the number of cells in G0
